From patent publication US11945821B1, “5-substituted aminopyrazino[2′,1′:2,3]imidazo[4,5-C][2,7]naphthyridine compounds as CK2 inhibitors” (KING FAISAL UNIVERSITY, priority 2023, dated 2024)

Tests used:
[1] = system: PC3 (prostate); experiment: In vitro cytotoxic activity (MTT) assay, PC3; type: cell-based; conditions: Homo sapiens, PC-3; PC3 cells, exposed for 96 hours; read-out: IC50, 50% inhibition of cell proliferation, PC3 (prostate)
Description: (§1) Compounds 1-12 were screened for their in vitro cytotoxic activity utilizing a 3-(4,5-dimethyl-thiazol-2-yl)-2,5-diphenyltetrazolium bromide (MTT) assay against selected cancer human cell lines consisting of PC3 (prostate), HCT116 (colon), A375 (melanoma), H1299 (lung), MIAPaCa-2 (pancreas), HL60 (leukemia), MCF7 (breast), MDA-MB-231 (breast) (T. Mosmann, J. Immunol. Meth., 1983, 65, 55-63). The cells were cultured at 37° C. in RMPI1640 medium supplemented with 10% fetal bovine serum, 50 IU/mL penicillin, and 50 μg/mL streptomycin in a 5% CO2 incubator. All cells were sub-cultured 3 times/week by trypsinisation. Viable cells were seeded and allowed to adhere for 12 h before a test drug was added in 96-well plates at an initial density of 1.0×10^5 cells/mL. Tumour cell lines were separately exposed to various concentrations of the tested compounds followed by incubation at a temperature of 37° C. during 96 h inside a medium of fresh RMPI 1640. Cells were subsequently incubated at 37° C. using MTT at 0.5 mg/mL during 4 h. After removal of supernatant, formazan crystals were dissolved in isopropanol and the optical density was measured at 570 nm. CX-4945 was used as a positive control.

[2] = system: HCT116 (colon); experiment: In vitro cytotoxic activity (MTT) assay, HCT116; type: cell-based; conditions: Homo sapiens, HCT-116; HCT116 cells, exposed for 96 hours; read-out: IC50, 50% inhibition of cell proliferation, HCT116 (colon)
Description: as §1

[3] = system: A375 (melanoma); experiment: In vitro cytotoxic activity (MTT) assay, A375; type: cell-based; conditions: Homo sapiens, A-375; A375 cells, exposed for 96 hours; read-out: IC50, 50% inhibition of cell proliferation, A375 (melanoma)
Description: as §1

[4] = system: H1299 (lung); experiment: In vitro cytotoxic activity (MTT) assay, H1299; type: cell-based; conditions: Homo sapiens, NCI-H1299; H1299 cells, exposed for 96 hours; read-out: IC50, 50% inhibition of cell proliferation, H1299 (lung)
Description: as §1

[5] = system: MIAPaCa-2 (pancreas); experiment: In vitro cytotoxic activity (MTT) assay, MIAPaCa-2; type: cell-based; conditions: Homo sapiens, MIA PaCa-2; MIAPaCa-2 cells, exposed for 96 hours; read-out: IC50, 50% inhibition of cell proliferation, MIAPaCa-2 (pancreas)
Description: as §1

[6] = system: HL60 (leukemia); experiment: In vitro cytotoxic activity (MTT) assay, HL60; type: cell-based; conditions: Homo sapiens, HL-60; HL60 cells, exposed for 96 hours; read-out: IC50, 50% inhibition of cell proliferation, HL60 (leukemia)
Description: as §1

[7] = system: MCF7 (breast); experiment: In vitro cytotoxic activity (MTT) assay, MCF7; type: cell-based; conditions: Homo sapiens; MCF7 cells, exposed for 96 hours; read-out: IC50, 50% inhibition of cell proliferation, MCF7 (breast)
Description: as §1

[8] = system: MDA-MB-231 (breast); experiment: In vitro cytotoxic activity (MTT) assay, MDA-MB-231; type: cell-based; conditions: Homo sapiens; MDA-MB-231 cells, exposed for 96 hours; read-out: IC50, 50% inhibition of cell proliferation, MDA-MB-231 (breast)
Description: as §1

[9] = biological target: T1, recombinant human CK2 (RRββ-holoenzyme) (Homo sapiens, UniProt P68400); experiment: CK2 Kinase Assay (33P-ATP, filter plate); type: biochemical; conditions: final ATP 15 μM, 10 min at 30° C., eight concentrations; read-out: protein kinase CK2 IC50
T1 construct: purchased Millipore
Description: CK2 Kinase Assay was conducted using the protocol as described in Pierre F. et al; J. Med. Chem. 2011, 54, 635-654. The tested compounds in aqueous solution were added at a volume of 10 μL to a reaction mixture comprising 10 μL of assay dilution buffer (ADB; 20 mM MOPS, pH 7.2, 25 mM β-glycerol phosphate, 5 mM EGTA, 1 mM sodium orthovanadate, and 1 mM dithiothreitol), 10 μL of substrate peptide (RRRDDDSDDD, dissolved in ADB at a concentration of 1 mM), 10 μL of recombinant human CK2 (RRββ-holoenzyme, 25 ng dissolved in ADB; Millipore). Reactions were initiated by the addition of 10 μL of ATP solution (90% 75 mMMgCl2, 75 μM ATP (final ATP concentration:15 μM) dissolved in ADB; 10% [γ-33P] ATP (stock 1 mCi/100 μL; 3000 Ci/mmol (Perkin-Elmer) and maintained for 10 min at 30° C. The reactions were quenched with 100 μL of 0.75% phosphoric acid and then transferred to and filtered through a phosphor cellulose filter plate (Millipore). After washing each well five times with 0.75% phosphoric acid, the plate was dried under vacuum for 5 min and, following the addition of 15 μL of scintillation fluid to each well, the residual radioactivity was measured using a Wallac luminescence counter. The IC50 values were derived from eight concentrations of test inhibitors.

T1 sequence (P68400 whole entry): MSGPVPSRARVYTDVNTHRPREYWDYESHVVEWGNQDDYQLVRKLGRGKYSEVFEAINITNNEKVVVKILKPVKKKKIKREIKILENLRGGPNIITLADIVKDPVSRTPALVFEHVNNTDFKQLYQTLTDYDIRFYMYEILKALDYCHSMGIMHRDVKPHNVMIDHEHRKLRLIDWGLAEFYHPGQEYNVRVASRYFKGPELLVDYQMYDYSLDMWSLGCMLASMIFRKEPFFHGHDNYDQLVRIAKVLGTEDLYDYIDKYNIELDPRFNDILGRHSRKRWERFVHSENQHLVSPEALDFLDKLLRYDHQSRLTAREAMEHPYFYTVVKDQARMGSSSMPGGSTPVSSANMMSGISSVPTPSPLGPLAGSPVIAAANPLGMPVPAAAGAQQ
T1 sequence (P67870 whole entry partner): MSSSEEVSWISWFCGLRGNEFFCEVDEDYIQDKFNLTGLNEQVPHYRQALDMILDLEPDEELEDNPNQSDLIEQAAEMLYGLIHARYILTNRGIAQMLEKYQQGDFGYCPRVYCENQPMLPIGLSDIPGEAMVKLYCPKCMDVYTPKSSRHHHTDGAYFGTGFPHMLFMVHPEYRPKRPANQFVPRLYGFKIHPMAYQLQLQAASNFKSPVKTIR

**Q.** Which IC50 [1] does the source give for `Clc1cccc(Nc2nc3c(nc4cnccn43)c3ccncc23)c1` [Example 1, N-(3-chlorophenyl)pyrazino[2′,1′:2.3]imidazo[4,5-c][2.7]naphthyridin-5-amine] here?
**A.** The IC50 was 1800 nM.

**Q.** And the IC50 [2]?
**A.** Its IC50 is 2100 nM.

**Q.** What about the IC50 [3] of the same compound?
**A.** The IC50 was 3300 nM.

**Q.** And the IC50 [4]?
**A.** Its IC50 is 1900 nM.

**Q.** What about the IC50 [5] of the same compound?
**A.** Its IC50 is 1200 nM.

**Q.** What about the IC50 [6] of the same compound?
**A.** Its IC50 is 3900 nM.

**Q.** And the IC50 [7]?
**A.** Its IC50 is 4800 nM.

**Q.** What about the IC50 [8] of the same compound?
**A.** The IC50 was 4100 nM.

**Q.** And the IC50 [9]?
**A.** The IC50 was 22 nM.
